Experimental data taken from patent publication US10670605B2, “Cysteine reactive probes and uses thereof” (The Scripps Research Institute, priority 2015, dated 2020).
Structures can show the parent of a compound that is named as a salt.

Assays:
Experiment in all cases: isoTOP-ABPP of compound-treated primary human T cells
Assay type in all cases: cell-based
[1] = target: T1, Cys residues in primary human T cells (Homo sapiens, UniProt P49588); settings: AARS C773 (P49588)
T1 sequence (P49588 1-968): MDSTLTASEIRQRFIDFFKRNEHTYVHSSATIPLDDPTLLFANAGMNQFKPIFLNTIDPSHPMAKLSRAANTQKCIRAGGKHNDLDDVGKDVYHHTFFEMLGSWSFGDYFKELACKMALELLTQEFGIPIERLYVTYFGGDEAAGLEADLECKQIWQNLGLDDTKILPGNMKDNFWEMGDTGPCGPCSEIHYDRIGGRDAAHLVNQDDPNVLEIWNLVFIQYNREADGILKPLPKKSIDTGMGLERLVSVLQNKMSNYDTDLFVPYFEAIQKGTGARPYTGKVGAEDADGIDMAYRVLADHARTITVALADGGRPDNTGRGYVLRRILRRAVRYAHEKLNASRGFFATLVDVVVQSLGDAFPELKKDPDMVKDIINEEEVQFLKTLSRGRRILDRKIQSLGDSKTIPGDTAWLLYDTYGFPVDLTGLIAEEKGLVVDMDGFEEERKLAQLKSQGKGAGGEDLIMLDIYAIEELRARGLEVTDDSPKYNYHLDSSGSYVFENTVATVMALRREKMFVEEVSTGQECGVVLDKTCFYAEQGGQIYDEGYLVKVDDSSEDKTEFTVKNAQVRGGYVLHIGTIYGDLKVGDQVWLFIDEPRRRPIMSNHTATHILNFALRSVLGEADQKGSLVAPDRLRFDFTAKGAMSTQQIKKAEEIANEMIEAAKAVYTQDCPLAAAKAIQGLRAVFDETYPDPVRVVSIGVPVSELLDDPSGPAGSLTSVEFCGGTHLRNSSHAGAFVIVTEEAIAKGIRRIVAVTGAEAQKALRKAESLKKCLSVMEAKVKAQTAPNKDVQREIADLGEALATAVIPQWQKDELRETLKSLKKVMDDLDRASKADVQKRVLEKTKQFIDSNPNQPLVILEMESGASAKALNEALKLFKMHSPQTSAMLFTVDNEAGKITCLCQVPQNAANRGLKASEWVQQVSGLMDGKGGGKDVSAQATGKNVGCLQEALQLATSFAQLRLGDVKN

[2] = target: Cys residues in primary human T cells (Homo sapiens, UniProt Q8IYQ7); settings: THNSL1 C324 (Q8IYQ7)
[3] = target: Cys residues in primary human T cells (Homo sapiens, UniProt P46109); settings: CRKL C249 (P46109)
[4] = target: Cys residues in primary human T cells (Homo sapiens, UniProt O14933); settings: UBE2L6 C98 (O14933)
[5] = target: T2, Cys residues in primary human T cells (Homo sapiens, UniProt P54136); settings: RARS C32 (P54136)
T2 sequence (P54136 1-660): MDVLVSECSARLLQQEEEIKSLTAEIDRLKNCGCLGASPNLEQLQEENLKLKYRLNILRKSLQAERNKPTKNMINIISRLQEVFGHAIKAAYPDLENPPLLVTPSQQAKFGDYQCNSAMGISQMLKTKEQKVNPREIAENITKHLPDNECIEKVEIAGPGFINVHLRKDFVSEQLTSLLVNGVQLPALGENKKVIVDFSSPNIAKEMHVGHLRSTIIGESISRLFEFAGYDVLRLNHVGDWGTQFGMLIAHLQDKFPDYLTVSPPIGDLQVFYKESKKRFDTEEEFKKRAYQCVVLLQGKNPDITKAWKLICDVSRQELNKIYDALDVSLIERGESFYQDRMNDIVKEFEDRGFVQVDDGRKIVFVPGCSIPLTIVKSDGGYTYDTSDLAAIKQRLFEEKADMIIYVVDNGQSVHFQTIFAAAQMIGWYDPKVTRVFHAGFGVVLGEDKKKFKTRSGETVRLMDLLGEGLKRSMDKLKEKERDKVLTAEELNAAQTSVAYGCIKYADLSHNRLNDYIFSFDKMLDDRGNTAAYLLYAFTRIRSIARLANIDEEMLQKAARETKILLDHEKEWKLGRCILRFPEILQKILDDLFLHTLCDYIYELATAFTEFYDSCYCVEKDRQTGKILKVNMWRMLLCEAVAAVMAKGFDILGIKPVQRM

[6] = target: T3, Cys residues in primary human T cells (Homo sapiens, UniProt Q9NRW3); settings: APOBEC3C C130 (Q9NRW3)
T3 sequence (Q9NRW3 1-190): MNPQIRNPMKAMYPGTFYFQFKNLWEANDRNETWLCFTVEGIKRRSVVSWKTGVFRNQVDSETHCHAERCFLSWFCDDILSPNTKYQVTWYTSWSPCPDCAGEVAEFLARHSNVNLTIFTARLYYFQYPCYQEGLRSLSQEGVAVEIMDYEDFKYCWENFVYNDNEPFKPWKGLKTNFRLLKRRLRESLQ

[7] = target: Cys residues in primary human T cells (Homo sapiens, UniProt Q93009); settings: USP7 C315 (Q93009)
[8] = target: Cys residues in primary human T cells (Homo sapiens, UniProt P21580); settings: TNFAIP3 C54 (P21580)
Cys residues in primary human T cells (Homo sapiens, UniProt P21580), sequence (P21580 whole entry): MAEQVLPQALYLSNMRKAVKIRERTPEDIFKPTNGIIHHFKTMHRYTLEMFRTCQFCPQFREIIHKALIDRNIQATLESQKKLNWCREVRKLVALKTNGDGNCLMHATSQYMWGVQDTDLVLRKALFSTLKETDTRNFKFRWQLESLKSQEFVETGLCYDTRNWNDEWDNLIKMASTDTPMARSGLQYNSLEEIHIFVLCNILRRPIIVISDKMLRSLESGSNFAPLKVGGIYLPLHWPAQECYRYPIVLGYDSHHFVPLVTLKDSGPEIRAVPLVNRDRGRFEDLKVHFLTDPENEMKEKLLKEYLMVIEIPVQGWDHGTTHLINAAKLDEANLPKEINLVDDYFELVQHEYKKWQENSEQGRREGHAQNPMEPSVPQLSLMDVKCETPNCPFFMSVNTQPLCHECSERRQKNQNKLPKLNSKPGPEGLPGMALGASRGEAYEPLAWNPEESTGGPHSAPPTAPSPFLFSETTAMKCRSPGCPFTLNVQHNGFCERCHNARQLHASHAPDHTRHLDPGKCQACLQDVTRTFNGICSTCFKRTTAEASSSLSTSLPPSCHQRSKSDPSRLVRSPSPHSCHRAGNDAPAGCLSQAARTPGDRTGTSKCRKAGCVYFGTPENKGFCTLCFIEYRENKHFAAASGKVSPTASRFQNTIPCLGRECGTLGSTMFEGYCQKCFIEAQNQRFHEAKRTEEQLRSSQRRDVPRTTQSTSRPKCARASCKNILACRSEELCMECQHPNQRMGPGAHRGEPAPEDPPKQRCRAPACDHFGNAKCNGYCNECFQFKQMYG

Cys residues in primary human T cells (Homo sapiens, UniProt O14933), sequence (O14933 whole entry): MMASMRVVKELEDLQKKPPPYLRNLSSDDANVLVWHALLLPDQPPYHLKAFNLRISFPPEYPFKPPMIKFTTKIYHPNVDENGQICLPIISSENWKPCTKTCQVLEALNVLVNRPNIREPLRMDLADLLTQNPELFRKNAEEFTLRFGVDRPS
Cys residues in primary human T cells (Homo sapiens, UniProt P46109), sequence (P46109 whole entry): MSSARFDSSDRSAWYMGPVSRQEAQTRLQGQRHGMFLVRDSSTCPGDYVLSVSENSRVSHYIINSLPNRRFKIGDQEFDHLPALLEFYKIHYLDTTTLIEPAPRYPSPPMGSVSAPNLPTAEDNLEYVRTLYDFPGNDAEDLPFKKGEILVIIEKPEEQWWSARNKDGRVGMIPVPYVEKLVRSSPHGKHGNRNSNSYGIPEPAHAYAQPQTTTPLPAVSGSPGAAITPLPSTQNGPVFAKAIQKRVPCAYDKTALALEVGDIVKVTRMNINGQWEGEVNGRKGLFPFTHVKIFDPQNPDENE
Cys residues in primary human T cells (Homo sapiens, UniProt Q93009), sequence (Q93009 whole entry): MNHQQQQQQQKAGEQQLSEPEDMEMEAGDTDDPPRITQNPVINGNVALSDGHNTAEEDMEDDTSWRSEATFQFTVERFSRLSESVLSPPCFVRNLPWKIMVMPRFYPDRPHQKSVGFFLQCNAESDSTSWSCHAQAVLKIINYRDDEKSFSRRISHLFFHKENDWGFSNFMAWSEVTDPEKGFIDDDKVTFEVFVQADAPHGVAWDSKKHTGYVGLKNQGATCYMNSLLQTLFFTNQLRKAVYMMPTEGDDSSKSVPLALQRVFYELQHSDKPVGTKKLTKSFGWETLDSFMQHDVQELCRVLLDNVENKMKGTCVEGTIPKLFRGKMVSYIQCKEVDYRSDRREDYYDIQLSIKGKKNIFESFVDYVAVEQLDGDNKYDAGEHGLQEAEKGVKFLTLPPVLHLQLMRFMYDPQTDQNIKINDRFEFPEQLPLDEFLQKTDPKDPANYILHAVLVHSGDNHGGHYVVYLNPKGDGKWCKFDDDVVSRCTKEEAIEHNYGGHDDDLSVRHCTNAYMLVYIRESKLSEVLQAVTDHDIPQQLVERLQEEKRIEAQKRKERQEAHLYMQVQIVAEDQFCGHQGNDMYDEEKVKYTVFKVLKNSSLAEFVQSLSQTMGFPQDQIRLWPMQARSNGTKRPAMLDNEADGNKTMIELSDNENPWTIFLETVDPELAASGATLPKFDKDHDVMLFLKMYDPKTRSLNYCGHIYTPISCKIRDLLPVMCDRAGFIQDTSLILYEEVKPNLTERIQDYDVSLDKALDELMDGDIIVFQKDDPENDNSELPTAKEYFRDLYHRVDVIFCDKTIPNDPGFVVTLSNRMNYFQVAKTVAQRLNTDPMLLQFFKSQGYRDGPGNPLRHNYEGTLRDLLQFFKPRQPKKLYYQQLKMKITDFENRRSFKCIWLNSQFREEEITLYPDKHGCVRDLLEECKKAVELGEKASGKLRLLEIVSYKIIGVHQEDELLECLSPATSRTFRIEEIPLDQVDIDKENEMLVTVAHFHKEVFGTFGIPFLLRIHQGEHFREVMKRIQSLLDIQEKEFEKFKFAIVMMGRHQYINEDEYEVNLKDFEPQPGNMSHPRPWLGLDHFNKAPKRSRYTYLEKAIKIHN
Cys residues in primary human T cells (Homo sapiens, UniProt Q8IYQ7), sequence (Q8IYQ7 whole entry): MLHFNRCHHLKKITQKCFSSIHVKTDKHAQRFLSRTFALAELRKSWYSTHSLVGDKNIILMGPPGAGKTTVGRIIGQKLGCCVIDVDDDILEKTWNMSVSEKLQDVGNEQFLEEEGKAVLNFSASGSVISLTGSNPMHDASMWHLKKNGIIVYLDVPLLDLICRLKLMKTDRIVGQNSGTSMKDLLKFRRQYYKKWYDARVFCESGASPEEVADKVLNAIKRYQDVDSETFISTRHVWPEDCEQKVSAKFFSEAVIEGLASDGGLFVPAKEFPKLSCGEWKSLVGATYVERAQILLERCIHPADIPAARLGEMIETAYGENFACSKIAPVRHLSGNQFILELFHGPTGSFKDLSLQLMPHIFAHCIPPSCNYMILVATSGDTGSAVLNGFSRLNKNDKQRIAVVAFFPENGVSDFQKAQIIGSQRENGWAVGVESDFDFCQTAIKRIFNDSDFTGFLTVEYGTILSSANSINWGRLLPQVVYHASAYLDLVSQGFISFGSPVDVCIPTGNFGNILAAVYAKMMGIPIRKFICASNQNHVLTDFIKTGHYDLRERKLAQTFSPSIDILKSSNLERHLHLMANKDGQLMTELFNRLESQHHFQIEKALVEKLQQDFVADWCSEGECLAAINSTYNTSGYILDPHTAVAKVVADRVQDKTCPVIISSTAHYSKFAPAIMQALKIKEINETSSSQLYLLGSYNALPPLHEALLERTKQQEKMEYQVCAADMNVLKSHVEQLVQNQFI

## COC(=O)/C=C/C(=O)OC [DMF, dimethyl fumarate]
[1]; DMF 10 μM 4h
  R value (DMSO/DMF): 2.84
[1]; DMF 50 μM 1h
  R value (DMSO/DMF): 9.34
[1]; DMF 50 μM 2h
  R value (DMSO/DMF): 10.16
[1]; DMF 50 μM 4h
  R value (DMSO/DMF): 12.75
[2]; DMF 50 μM 1h
  R value (DMSO/DMF): 15.93
[2]; DMF 50 μM 2h
  R value (DMSO/DMF): 19.36
[3]; DMF 10 μM 4h
  R value (DMSO/DMF): 1.38
[3]; DMF 50 μM 1h
  R value (DMSO/DMF): 2.21
[3]; DMF 50 μM 2h
  R value (DMSO/DMF): 3.21
[3]; DMF 50 μM 4h
  R value (DMSO/DMF): 4.86
[4]; DMF 10 μM 4h
  R value (DMSO/DMF): 1.49
[4]; DMF 50 μM 1h
  R value (DMSO/DMF): 2.44
[4]; DMF 50 μM 2h
  R value (DMSO/DMF): 2.92
[4]; DMF 50 μM 4h
  R value (DMSO/DMF): 12.55
[5]; DMF 10 μM 4h
  R value (DMSO/DMF): 0.62
[5]; DMF 25 μM 4h
  R value (DMSO/DMF): 4.03
[5]; DMF 50 μM 1h
  R value (DMSO/DMF): 2.58
[5]; DMF 50 μM 2h
  R value (DMSO/DMF): 3.58
[5]; DMF 50 μM 4h
  R value (DMSO/DMF): 5.02
[6]; DMF 10 μM 4h
  R value (DMSO/DMF): 1.92
[6]; DMF 50 μM 1h
  R value (DMSO/DMF): 8.6
[6]; DMF 50 μM 2h
  R value (DMSO/DMF): 20
[6]; DMF 50 μM 4h
  R value (DMSO/DMF): 20
[7]; DMF 10 μM 4h
  R value (DMSO/DMF): 1.9
[7]; DMF 50 μM 1h
  R value (DMSO/DMF): 5.33
[7]; DMF 50 μM 2h
  R value (DMSO/DMF): 14.06
[8]; DMF 10 μM 4h
  R value (DMSO/DMF): 1.58
[8]; DMF 50 μM 2h
  R value (DMSO/DMF): 5.34
